Values quoted from earlier work in PMC10329699, “Pharmacokinetics, biodistribution and toxicology of novel cell-penetrating peptides” (Scientific Reports, 2023).
Like-named read-outs stand apart in the source and are kept apart here.

Legend:
[1] = literature values for comparison
Source text: Considering their smaller size (up to 30 amino acids in length), cationic and/or amphipathic CPPs have a greater potential to penetrate the BBB than other transport systems. […] For the sake of comparison, a control IgG, an IgG binding ...

OC[C@H]1OC(O)[C@H](O)[C@@H](O)[C@@H]1O (stereo partly drawn) [glucose]
Clup (brain uptake coefficient), comparison values [1]: ≈ 1 µl g^−1 s^−1

TAT
half-life (stability in human serum) (in vitro at 37 °C in human serum): 8.8 h

penetratin
half-life (stability in human serum) (human): 1.2 h
